The NIST ThermoML archive (doi:10.1016/j.jct.2015.02.023)
± gives the expanded uncertainty stated by the source.

Assay: activity coefficient (dimensionless); of the first substance listed, at infinite dilution; xn = mol fraction of the nth substance listed
Details: 101.33 kPa, Liquid, Chromatography, x1 = 0

SMILES | activity coefficient (313.15 K) | activity coefficient (333.15 K) | activity coefficient (353.15 K) | activity coefficient (373.15 K) | activity coefficient (323.15 K) | activity coefficient (343.15 K)
Cc1ccccc1C [1,2-dimethylbenzene] + CCn1cc[n+](C)c1.CO[PH](=O)[O-] | 14.4 ± 1 | 15 ± 1 | 16.2 ± 1.1 | 18.8 ± 1.3 | – | –
Cc1ccccc1C [1,2-dimethylbenzene] + CO[PH](=O)[O-].Cn1cc[n+](C)c1 | 19.2 ± 1.3 | 18.6 ± 1.3 | – | – | 19.1 ± 1.3 | 18.5 ± 1.3
Cc1cccc(C)c1 [1,3-dimethylbenzene] + CCn1cc[n+](C)c1.CO[PH](=O)[O-] | 18.6 ± 1.3 | 18.8 ± 1.3 | 20.4 ± 1.4 | 24.9 ± 1.7 | – | –
Cc1cccc(C)c1 [1,3-dimethylbenzene] + CO[PH](=O)[O-].Cn1cc[n+](C)c1 | 24.5 ± 1.7 | 23.6 ± 1.6 | – | – | 24.4 ± 1.7 | 23.1 ± 1.6
Cc1ccc(C)cc1 [1,4-dimethylbenzene] + CCn1cc[n+](C)c1.CO[PH](=O)[O-] | 16.9 ± 1.2 | 18 ± 1.2 | 19.3 ± 1.3 | 21.9 ± 1.5 | – | –
Cc1ccc(C)cc1 [1,4-dimethylbenzene] + CO[PH](=O)[O-].Cn1cc[n+](C)c1 | 23.4 ± 1.6 | 22.7 ± 1.6 | – | – | 23.4 ± 1.6 | 22 ± 1.5
C1COCCO1 [1,4-dioxane] + CCn1cc[n+](C)c1.CO[PH](=O)[O-] | 3.4 ± 0.23 | 3.55 ± 0.24 | 3.87 ± 0.26 | 4.33 ± 0.29 | – | –
C1COCCO1 [1,4-dioxane] + CO[PH](=O)[O-].Cn1cc[n+](C)c1 | 3.73 ± 0.25 | 3.69 ± 0.25 | – | – | 3.72 ± 0.25 | 3.66 ± 0.25
C#CCCCCC [1-heptyne] + CCn1cc[n+](C)c1.CO[PH](=O)[O-] | 10.2 ± 0.7 | 11.1 ± 0.8 | 11.8 ± 0.8 | 12 ± 0.8 | – | –
C#CCCCCC [1-heptyne] + CO[PH](=O)[O-].Cn1cc[n+](C)c1 | 22 ± 1.5 | 23.5 ± 1.6 | – | – | 23.5 ± 1.6 | 24.9 ± 1.7
C#CCCCC [1-hexyne] + CCn1cc[n+](C)c1.CO[PH](=O)[O-] | 6.24 ± 0.43 | 6.73 ± 0.46 | 7.14 ± 0.49 | 7.56 ± 0.52 | – | –
C#CCCCC [1-hexyne] + CO[PH](=O)[O-].Cn1cc[n+](C)c1 | 12.7 ± 0.87 | 13.4 ± 0.91 | – | – | 13 ± 0.88 | 13.7 ± 0.93
CCC[N+](=O)[O-] [1-nitropropane] + CCn1cc[n+](C)c1.CO[PH](=O)[O-] | 2.68 ± 0.18 | 2.69 ± 0.18 | 2.75 ± 0.19 | 2.8 ± 0.19 | – | –
CCC[N+](=O)[O-] [1-nitropropane] + CO[PH](=O)[O-].Cn1cc[n+](C)c1 | 3.41 ± 0.23 | 3.29 ± 0.22 | – | – | 3.35 ± 0.23 | 3.29 ± 0.22
CC(C)CO [2-methyl-1-propanol] + CCn1cc[n+](C)c1.CO[PH](=O)[O-] | – | – | 0.292 ± 0.031 | 0.309 ± 0.031 | – | –
CC#N [acetonitrile] + CCn1cc[n+](C)c1.CO[PH](=O)[O-] | 1.08 ± 0.07 | 1.11 ± 0.07 | 1.19 ± 0.08 | 1.25 ± 0.08 | – | –
CC#N [acetonitrile] + CO[PH](=O)[O-].Cn1cc[n+](C)c1 | 1.1 ± 0.07 | 1.12 ± 0.07 | – | – | 1.11 ± 0.07 | 1.12 ± 0.07
c1ccccc1 [benzene] + CCn1cc[n+](C)c1.CO[PH](=O)[O-] | 3.44 ± 0.23 | 3.52 ± 0.24 | 3.61 ± 0.25 | 3.75 ± 0.26 | – | –
c1ccccc1 [benzene] + CO[PH](=O)[O-].Cn1cc[n+](C)c1 | 5.69 ± 0.39 | 5.52 ± 0.38 | – | – | 5.58 ± 0.38 | 5.43 ± 0.37

SMILES | activity coefficient (313.15 K) | activity coefficient (333.15 K) | activity coefficient (353.15 K) | activity coefficient (373.15 K) | activity coefficient (323.15 K) | activity coefficient (343.15 K)
CCCCO [butan-1-ol] + CCn1cc[n+](C)c1.CO[PH](=O)[O-] | – | – | 0.308 ± 0.031 | 0.324 ± 0.032 | – | –
CCC(C)=O [butanone] + CCn1cc[n+](C)c1.CO[PH](=O)[O-] | 3.49 ± 0.24 | 3 ± 0.2 | 2.56 ± 0.17 | 2.37 ± 0.16 | – | –
CCC(C)=O [butanone] + CO[PH](=O)[O-].Cn1cc[n+](C)c1 | 5.52 ± 0.38 | 4.66 ± 0.32 | – | – | 5.16 ± 0.35 | 4.17 ± 0.28
C1CCCCCC1 [cycloheptane] + CCn1cc[n+](C)c1.CO[PH](=O)[O-] | 98.8 ± 6.8 | 180 ± 12 | 303 ± 21 | 438 ± 30 | – | –
C1CCCCCC1 [cycloheptane] + CO[PH](=O)[O-].Cn1cc[n+](C)c1 | 250 ± 17 | – | – | – | – | –
C1CCCCC1 [cyclohexane] + CCn1cc[n+](C)c1.CO[PH](=O)[O-] | 89 ± 6 | 43.1 ± 3 | – | – | – | –
C1CCCCC1 [cyclohexane] + CO[PH](=O)[O-].Cn1cc[n+](C)c1 | 129 ± 9 | – | – | – | – | –
CCCCCCCCCC [decane] + CCn1cc[n+](C)c1.CO[PH](=O)[O-] | 882 ± 61 | 704 ± 48 | 582 ± 40 | – | – | –
CCCCCCCCCC [decane] + CO[PH](=O)[O-].Cn1cc[n+](C)c1 | 1220 ± 84 | – | – | – | 1210 ± 84 | –
ClCCl [dichloromethane] + CCn1cc[n+](C)c1.CO[PH](=O)[O-] | 0.502 ± 0.038 | 0.642 ± 0.044 | 0.798 ± 0.052 | – | – | –
ClCCl [dichloromethane] + CO[PH](=O)[O-].Cn1cc[n+](C)c1 | 0.57 ± 0.04 | 0.72 ± 0.05 | – | – | 0.65 ± 0.04 | 0.77 ± 0.05
CCOCC [diethyl ether] + CCn1cc[n+](C)c1.CO[PH](=O)[O-] | 1.99 ± 0.14 | 2.43 ± 0.17 | 3.5 ± 0.24 | 4.6 ± 0.31 | – | –
CCCCCCCCCCCC [dodecane] + CCn1cc[n+](C)c1.CO[PH](=O)[O-] | 1740 ± 120 | 1540 ± 110 | 1300 ± 90 | 915 ± 63 | – | –
CCCCCCCCCCCC [dodecane] + CO[PH](=O)[O-].Cn1cc[n+](C)c1 | 2350 ± 160 | 1790 ± 120 | – | – | 1920 ± 130 | –
CCO [ethanol] + CCn1cc[n+](C)c1.CO[PH](=O)[O-] | – | 0.148 ± 0.029 | 0.156 ± 0.029 | 0.169 ± 0.029 | – | –
CCO [ethanol] + CO[PH](=O)[O-].Cn1cc[n+](C)c1 | – | – | – | – | – | 0.16 ± 0.03
CCc1ccccc1 [ethylbenzene] + CCn1cc[n+](C)c1.CO[PH](=O)[O-] | 11.4 ± 0.8 | 11.6 ± 0.8 | 11.7 ± 0.8 | 11.9 ± 0.8 | – | –
CCc1ccccc1 [ethylbenzene] + CO[PH](=O)[O-].Cn1cc[n+](C)c1 | 22.7 ± 1.6 | 21.7 ± 1.5 | – | – | 22.1 ± 1.5 | 21.5 ± 1.5
C=O [methanal] + CCn1cc[n+](C)c1.CO[PH](=O)[O-] | 0.059 | 0.084 ± 0.03 | 0.115 ± 0.03 | 0.151 ± 0.029 | – | –
